Earlier results as cited in patent publication US7910108B2, “Sheddase inhibitors combined with CD30-binding immunotherapeutics for the treatment of CD30 positive diseases” (Incyte Corporation, priority 2006, dated 2011).
Like-named read-outs stand apart in the source and are kept apart here.

How the values were obtained:
CD30 [1] = details: in vitro; combined with anti-CD30 immunotoxins
CD30 [2] = details: in vivo, rodent; administered concomitantly with anti-CD30 immunotoxins

SMILES: CO[C@H](C(=O)NO)[C@@H](CC(C)C)C(=O)N[C@H](C(=O)Nc1ccccn1)C(C)(C)C [BB-3644]
- effectiveness of combination versus immunotoxin alone (CD30 [1]): substantially more effective
- effectiveness of combination versus immunotoxin alone (CD30 [2]): substantially more effective
